Reference: patent publication US10047098B2, “C5-C6-oxacyclic fused iminopyrimidinone compounds as bace inhibitors, compositions, and their use” (Merck Sharp & Dohme Corp., priority 2014, dated 2018)

Legend:
[1] = biological target: Recombinant human soluble BACE1 catalytic domain (Homo sapiens (Human), UniProt P56817); assay: BACE1 HTRF FRET Assay; assay type: biochemical; conditions: Ki calculated from IC50 using the Cheng-Prusoff equation; QSY7-APPswe-Eu substrate, pH 5.0; read-out: BACE-1 Ki
Description: Reagents: Na^+-Acetate pH 5.0; 1% Brij-35; Glycerol; Dimethyl Sulfoxide (DMSO); Recombinant human soluble BACE1 catalytic domain (>95% pure); APP Swedish mutant peptide substrate (QSY7-APP^swe-Eu): QSY7-EISEVNLDAEFC-Europium-amide.
A homogeneous time-resolved FRET assay can be used to determine IC50 values for inhibitors of the soluble human BACE1 catalytic domain. This assay monitors the increase of 620 nm fluorescence that resulted from BACE1 cleavage of an APPswedish APP^swe mutant peptide FRET substrate (QSY7-EISEVNLDAEFC-Europium-amide). This substrate contains an N-terminal QSY7 moiety that serves as a quencher of the C-terminal Europium fluorophore (620 nm Em). In the absence of enzyme activity, 620 nm fluorescence is low in the assay and increased linearly over 3 hours in the presence of uninhibited BACE1 enzyme. Inhibition of BACE1 cleavage of the QSY7-APP^swe-Eu substrate by inhibitors is manifested as a suppression of 620 nm fluorescence.
Varying concentrations of inhibitors at 3× the final desired concentration in a volume of 10 ul are preincubated with purified human BACE1 catalytic domain (3 nM in 10 μl) for 30 minutes at 30° C. in reaction buffer containing 20 mM Na-Acetate pH 5.0, 10% glycerol, 0.1% Brij-35 and 7.5% DSMO. Reactions are initiated by addition of 10 μl of 600 nM QSY7-APP^swe-Eu substrate (200 nM final) to give a final reaction volume of 30 μl in a 384 well Nunc HTRF plate. The reactions are incubated at 30° C. for 1.5 hours. The 620 nm fluorescence is then read on a Rubystar HTRF plate reader (BMG Labtechnologies) using a 50 millisecond delay followed by a 400 millisecond acquisition time window. Inhibitor IC50 values are derived from non-linear regression analysis of concentration response curves. Ki values are then calculated from IC50 values using the Cheng-Prusoff equation using a previously determined […] of 8 μM for the QSY7-APP^swe-Eu substrate at BACE1.

[2] = biological target: purified human autoBACE-2 (Homo sapiens (Human), UniProt Q9Y5Z0); assay: BACE-2 Assay (BACE-HTRF assay); assay type: biochemical; conditions: Ki calculated from IC50 using the Cheng-Prusoff equation; QSY7-EISEVNLDAEFC-Eu-amide substrate, pH 5.0
Experimental: Inhibitor IC50s at purified human autoBACE-2 are determined in a time-resolved endpoint proteolysis assay that measures hydrolysis of the QSY7-[…]-Eu-amide FRET peptide substrate (BACE-HTRF assay). […] DMSO is present at 5% final concentration in the assay. Following laser excitation of sample wells at 320 nm, the fluorescence signal at 620 nm is collected for 400 ms following a 50 μs delay on a RUBYstar HTRF plate reader (BMG Labtechnologies). Raw RFU data is normalized to maximum (1.0 nM BACE/DMSO) and minimum (no enzyme/DMSO) RFU values. […] The Ki values are calculated from the IC50 using the Cheng-Prusoff equation.

Sequence of Recombinant human soluble BACE1 catalytic domain (P56817 75-416): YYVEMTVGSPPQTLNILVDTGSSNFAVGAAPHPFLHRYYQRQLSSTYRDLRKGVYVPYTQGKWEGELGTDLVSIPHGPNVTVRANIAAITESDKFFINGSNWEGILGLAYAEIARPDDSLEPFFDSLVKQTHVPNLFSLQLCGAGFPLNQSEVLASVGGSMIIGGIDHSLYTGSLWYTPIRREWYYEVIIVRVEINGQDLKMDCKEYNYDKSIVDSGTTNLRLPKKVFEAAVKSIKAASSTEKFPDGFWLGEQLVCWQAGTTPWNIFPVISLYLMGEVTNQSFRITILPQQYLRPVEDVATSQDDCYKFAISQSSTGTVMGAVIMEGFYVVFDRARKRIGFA
Sequence of purified human autoBACE-2 (Q9Y5Z0 63-473 limits assumed): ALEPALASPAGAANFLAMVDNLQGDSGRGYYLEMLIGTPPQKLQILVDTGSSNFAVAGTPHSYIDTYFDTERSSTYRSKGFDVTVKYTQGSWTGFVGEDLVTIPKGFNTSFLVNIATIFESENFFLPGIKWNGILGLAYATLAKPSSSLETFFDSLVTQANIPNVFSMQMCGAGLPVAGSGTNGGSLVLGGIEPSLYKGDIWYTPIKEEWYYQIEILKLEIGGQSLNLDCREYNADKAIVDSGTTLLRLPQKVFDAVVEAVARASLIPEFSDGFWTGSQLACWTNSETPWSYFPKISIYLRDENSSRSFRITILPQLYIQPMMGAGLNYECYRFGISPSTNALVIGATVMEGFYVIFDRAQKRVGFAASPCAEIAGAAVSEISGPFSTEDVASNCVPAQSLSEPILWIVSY

Structure (SMILES) | Ki [1] [µM] | Ki [2] [µM]
COC[C@H]1C[C@H]2C(=O)N(C)C(=N)N[C@@]2(c2ccc(F)cc2F)CO1 [Example 1, (4aR,6R,8aS)-8a-(2,4-difluorophenyl)-2-imino-6-(methoxymethyl)-3-methylhexahydro-1H-pyrano[3,4-d]pyrimidin-4(4aH)-one] | 0.629 | 0.237
COC[C@H]1C[C@H]2C(=O)N(C)C(=N)N[C@@]2(c2cc(Oc3cc(C#N)ccn3)c(F)cc2F)CO1 [Example 2, 2-(2,4-difluoro-5-((4aR,6R,8aS)-2-imino-6-(methoxymethyl)-3-methyl-4-oxohexahydro-1H-pyrano[3,4-d]pyrimidin-8a(8H)-yl)phenoxy)isonicotinonitrile] | 0.003 | 0.011
COC[C@H]1C[C@H]2C(=O)N(C)C(=N)N[C@@]2(c2cc(Oc3cc(OC)ccn3)c(F)cc2F)CO1 [Example 4, (4aR,6R,8aS)-8a-(2,4-difluoro-5-((4-methoxypyridin-2-yl)oxy)phenyl)-2-imino-6-(methoxymethyl)-3-methylhexahydro-1H-pyrano[3,4-d]pyrimidin-4(4aH)-one] | 0.02 | 0.061
COC[C@H]1C[C@H]2C(=O)N(C)C(=N)N[C@@]2(c2cc(OCC3CC3)c(F)cc2F)CO1 [Example 5, (4aR,6R,8aS)-8a-(5-(cyclopropylmethoxy)-2,4-difluorophenyl)-2-imino-6-(methoxymethyl)-3-methylhexahydro-1H-pyrano[3,4-d]pyrimidin-4(4aH)-one] | 0.068 | 0.082
CN1C(=N)N[C@@]2(c3ccc(F)cc3F)CO[C@@H](C3CC3)C[C@H]2C1=O [Example 6, (4aR,6R,8aS)-6-cyclopropyl-8a-(2,4-difluorophenyl)-2-imino-3-methylhexahydro-1H-pyrano[3,4-d]pyrimidin-4(4aH)-one] | 0.099 | 0.265
CN1C(=N)N[C@@]2(c3cc(Oc4ncccc4F)ccc3F)CO[C@@H](C3CC3)C[C@H]2C1=O [Example 15, (4aR,6R,8aS)-6-cyclopropyl-8a-(2-fluoro-5-((3-fluoropyridin-2-yl)oxy)phenyl)-2-imino-3-methylhexahydro-1H-pyrano[3,4-d]pyrimidin-4(4aH)-one] | 0.002 | 0.008
CN1C(=N)N[C@@]2(c3cc(Oc4ncc(F)cc4F)ccc3F)CO[C@@H](C3CC3)C[C@H]2C1=O [Example 18, (4aR,6R,8aS)-6-cyclopropyl-8a-(5-((3,5-difluoropyridin-2-yl)oxy)-2-fluorophenyl)-2-imino-3-methylhexahydro-1H-pyrano[3,4-d]pyrimidin-4(4aH)-one] | 0.011 | 0.109
C[C@H]1C[C@H]2C(=O)N(C)C(=N)N[C@@]2(c2cc(Oc3ncccc3F)ccc2F)CO1 [Example 19, (4aR,6S,8aS)-8a-(2-fluoro-5-((3-fluoropyridin-2-yl)oxy)phenyl)-2-imino-3,6-dimethylhexahydro-1H-pyrano[3,4-d]pyrimidin-4(4aH)-one] | 0.007 | 0.005
C[C@H]1C[C@H]2C(=O)N(C)C(=N)N[C@@]2(c2cc(Oc3cc(C#N)ccn3)ccc2F)CO1 [Example 21, 2-(4-fluoro-3-((4aR,6S,8aS)-2-imino-3,6-dimethyl-4-oxohexahydro-1H-pyrano[3,4-d]pyrimidin-8a(8H)-yl)phenoxy)isonicotinonitrile] | 0.006 | 0.006
Cc1nccc(Oc2ccc(F)c([C@]34CO[C@@H](C5CC5)C[C@H]3C(=O)N(C)C(=N)N4)c2)n1 [Example 22, (4aR,6R,8aS)-6-cyclopropyl-8a-(2-fluoro-5-((2-methylpyrimidin-4-yl)oxy)phenyl)-2-imino-3-methylhexahydro-1H-pyrano[3,4-d]pyrimidin-4(4aH)-one] | 0.057 | 0.182

Further compounds by falling Ki [1], results first:

Ki [1] [µM] | Ki [2] [µM] | Structure (SMILES)
0.312 | 0.254 | CN1C(=N)N[C@@]2(c3ccc(F)cc3F)CO[C@@H](C(F)F)C[C@H]2C1=O [Example 7, (4aR,6R,8aS)-6-(difluoromethyl)-8a-(2,4-difluorophenyl)-2-imino-3-methylhexahydro-1H-pyrano[3,4-d]pyrimidin-4(4aH)-one]
0.131 | 0.034 | Cc1cc([C@H]2C[C@H]3C(=O)N(C)C(=N)N[C@@]3(c3cc(F)ccc3F)CO2)on1 [Example 8, (4aR,6R,8aS)-8a-(2,5-difluorophenyl)-2-imino-3-methyl-6-(3-methylisoxazol-5-yl)hexahydro-1H-pyrano[3,4-d]pyrimidin-4(4aH)-one]
0.11 | 0.105 | C[C@H]1C[C@H]2C(=O)N(C)C(=N)N[C@@]2(c2ccc(F)cc2F)CO1 [Example 11, (4aR,65,8aS)-8a-(2,4-difluorophenyl)-2-imino-3,6-dimethylhexahydro-1H-pyrano[3,4-d]pyrimidin-4(4aH)-one]
0.06 | 0.228 | CN1C(=N)N[C@@]2(c3cc(Oc4ccnc(C(F)F)c4)ccc3F)CO[C@@H](C3CC3)C[C@H]2C1=O [Example 20]
0.052 | 0.023 | CN1C(=N)N[C@@]2(c3cc(Oc4cc(-n5cccn5)ncn4)ccc3F)CO[C@@H](C3CC3)C[C@H]2C1=O [Example 13, (4aR,6R,8aS)-8a-(5-((6-(1H-pyrazol-1-yl)pyrimidin-4-yl)oxy)-2-fluorophenyl)-6-cyclopropyl-2-imino-3-methylhexahydro-1H-pyrano[3,4-d]pyrimidin-4(4aH)-one]
0.043 | 0.042 | CN1C(=N)N[C@@]2(c3cc(Oc4ccnc(-n5cncn5)c4)ccc3F)CO[C@@H](C3CC3)C[C@H]2C1=O [Example 16, (4aR,6R,8aS)-8a-(5-((2-(1H-1,2,4-triazol-1-yl)pyridin-4-yl)oxy)-2-fluorophenyl)-6-cyclopropyl-2-imino-3-methylhexahydro-1H-pyrano[3,4-d]pyrimidin-4(4aH)-one]
0.013 | 0.008 | C[C@H]1C[C@H]2C(=O)N(C)C(=N)N[C@@]2(c2cc(OCC3CC3)ccc2F)CO1 [Example 23, (4aR,6S,8aS)-8a-(5-(cyclopropylmethoxy)-2-fluorophenyl)-2-imino-3,6-dimethylhexahydro-1H-pyrano[3,4-d]pyrimidin-4(4aH)-one]
0.012 | 0.102 | Cc1cncc(Oc2ccc(F)c([C@]34CO[C@@H](C5CC5)C[C@H]3C(=O)N(C)C(=N)N4)c2)n1 [Example 17, (4aR,6R,8aS)-6-cyclopropyl-8a-(2-fluoro-5-((6-methylpyrazin-2-yl)oxy)phenyl)-2-imino-3-methylhexahydro-1H-pyrano[3,4-d]pyrimidin-4(4aH)-one]
0.004 | 0.002 | C[C@H]1C[C@H]2C(=O)N(C)C(=N)N[C@@]2(c2cc(Oc3ncccc3F)c(F)cc2F)CO1 [Example 10, (4aR,6S,8aS)-8a-(2,4-difluoro-5-((3-fluoropyridin-2-yl)oxy)phenyl)-2-imino-3,6-dimethylhexahydro-1H-pyrano[3,4-d]pyrimidin-4(4aH)-one]
0.002 | 0.004 | C[C@H]1C[C@H]2C(=O)N(C)C(=N)N[C@@]2(c2cc(Oc3cc(C#N)ccn3)c(F)cc2F)CO1 [Example 9, 2-(2,4-difluoro-5-((4aR,6S,8aS)-2-imino-3,6-dimethyl-4-oxohexahydro-1H-pyrano[3,4-d]pyrimidin-8a(8H)-yl)phenoxy)isonicotinonitrile]
0.002 | 0.013 | CN1C(=N)N[C@@]2(c3cc(Oc4cc(C#N)ccn4)ccc3F)CO[C@@H](C3CC3)C[C@H]2C1=O [Example 14, 2-(3-((4aR,6R,8aS)-6-cyclopropyl-2-imino-3-methyl-4-oxohexahydro-1H-pyrano[3,4-d]pyrimidin-8a(8H)-yl)-4-fluorophenoxy)isonicotinonitrile]
0.001 | 0.003 | COC[C@H]1C[C@H]2C(=O)N(C)C(=N)N[C@@]2(c2cc(Oc3ncccc3F)c(F)cc2F)CO1 [Example 3, (4aR,6R,8aS)-8a-(2,4-difluoro-5-((3-fluoropyridin-2-yl)oxy)phenyl)-2-imino-6-(methoxymethyl)-3-methylhexahydro-1H-pyrano[3,4-d]pyrimidin-4(4aH)-one]
